Laboratory results taken from the supplement of paper PMC10307832.

Experiments:
[1] = compound: CC1=CC(=CC=C1)NC2=NC(=CS2)C3=CC=NC=C3 + COc1cc2c(Oc3ccc(NC(=O)C4(C(=O)Nc5ccc(F)cc5)CC4)cc3F)ccnc2cc1OCCCN1CCOCC1 [Foretinib] (partner 0.25 µM); test: relative viability (nuclei count vs DMSO), 5 days (fraction); higher = more cells survive
Method in brief: (§1)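 After 5 days of treatment, lung cancer cells in 1536-well plates were fixed and stained in a single step (final 0.05% Triton X-100, 1% formaldehyde, 1 ug/ml Hoechst) and their nuclei counted on 4× images. Treatment had been applied by pin tool the day after seeding as one drug alone or as a fixed anchor-drug dose with five library-drug doses (not always all listed) in √10 steps. Relative viability is the nuclei count of treated wells divided by that of vehicle wells, and values are medians of duplicate plates.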

Masitinib + Tozasertib = compound: Cc1ccc(NC(=O)c2ccc(CN3CCN(C)CC3)cc2)cc1Nc1nc(-c2cccnc2)cs1 [Masitinib] + Cc1cc(Nc2cc(N3CCN(C)CC3)nc(Sc3ccc(NC(=O)C4CC4)cc3)n2)n[nH]1 [Tozasertib] (partner 0.1 µM); test: as above
Method in brief: as §1

| Cell Line | relative viability ([1]; first compound 0.253 µM) | relative viability ([1]; first compound 0.8 µM) | relative viability ([1]; first compound 2.53 µM) | relative viability ([1]; first compound 8 µM) | relative viability (Masitinib + Tozasertib; first compound 0.01 µM) | relative viability (Masitinib + Tozasertib; first compound 0.03162 µM) | relative viability (Masitinib + Tozasertib; first compound 0.1 µM) | relative viability (Masitinib + Tozasertib; first compound 0.3162 µM) | relative viability (Masitinib + Tozasertib; first compound 1 µM) | relative viability ([1]; first compound 0.08 µM) |
| --- | --- | --- | --- | --- | --- | --- | --- | --- | --- | --- |
| NCI-H727 | 0.837 | 0.785 | 0.79 | 0.71 | 0.691 | 0.597 | 0.69 | 0.664 | 0.548 |  |
| HCC-15 | 1.01 | 0.928 | 1.07 | 0.922 | 0.491 | 0.426 | 0.433 | 0.387 | 0.243 | 0.942 |
| NCI-H1650 | 1.13 | 1.04 | 1.22 | 1.13 | 0.346 | 0.329 | 0.297 | 0.326 | 0.23 | 1.13 |
| ABC-1 | 1.14 | 1.18 | 0.884 | 1.03 | 0.223 | 0.163 | 0.168 | 0.226 | 0.18 | 1.08 |
| LCLC-103H | 0.695 | 0.725 | 0.76 | 0.608 | 0.43 | 0.497 | 0.506 | 0.443 | 0.434 | 0.663 |
| NCI-H460 | 0.894 | 0.948 | 0.924 | 0.82 | 0.288 | 0.4 | 0.313 | 0.0644 | 0.168 | 0.915 |
| EPLC-272H | 0.711 | 0.623 | 0.597 | 0.723 | 0.342 | 0.352 | 0.361 | 0.357 | 0.244 | 0.657 |
